# Patent publication EP2987533B1, “7-substituted piperazin-1-yl fluoroquinolone compounds, their use in the treatment of cancer, pharmaceutical compositions and a method for preparation” (priority 2014, dated 2016)
# What was measured:
# Assay type in all cases: cell-based
# [1] = tested on: PRMI-8226; experiment: NCI five-dose SRB growth assay; conditions: Homo sapiens; PRMI-8226 (Leukemia), 48 h
# [2] = tested on: SF-539; experiment: NCI five-dose SRB growth assay; conditions: Homo sapiens; SF-539 (CNS Cancer), 48 h
# [3] = tested on: OVCAR-3; experiment: NCI five-dose SRB growth assay; conditions: Homo sapiens; OVCAR-3 (Ovarian Cancer), 48 h
# [4] = tested on: TK-10; experiment: NCI five-dose SRB growth assay; conditions: Homo sapiens; TK-10 (Renal Cancer), 48 h
# [5] = tested on: MDA-MB-231/ATCC; experiment: NCI five-dose SRB growth assay; conditions: Homo sapiens; MDA-MB-231/ATCC (Breast Cancer), 48 h
# [6] = tested on: HS 578T; experiment: NCI one-dose SRB growth assay; conditions: Homo sapiens; HS 578T (Breast Cancer), 10^-5 M, 48 h; read-out: % Growth Inhibition (GI %)
# [7] = tested on: OVCAR-5; experiment: NCI five-dose SRB growth assay; conditions: Homo sapiens; OVCAR-5 (Ovarian Cancer), 48 h
Compound,GI50 [1] [µM],GI50 [2] [µM],GI50 [3] [µM],GI50 [4] [µM],GI50 [5] [µM],inhibition at 10 µM [6] [%],GI50 [7] [µM]
Cc1cc(C)c(S(=O)(=O)N2CCN(c3cc4c(cc3F)c(=O)c(C(=O)O)cn4C3CC3)CC2)c(C)c1 [Compound 6b],2.34,3.14,3.17,4.57,2.03,,
CCn1cc(C(=O)O)c(=O)c2cc(F)c(N3CCN(S(=O)(=O)c4ccc(Cl)cc4)CC3)cc21 [Compound 1a],3.08,4.12,3.51,3.73,2.51,81.1,4.25
O=C(O)c1cn(C2CC2)c2cc(N3CCN(S(=O)(=O)c4ccc(Cl)c(Cl)c4)CC3)c(F)cc2c1=O [Compound 3b],2.53,3.39,3.9,4.31,2.14,,4.14
CCn1cc(C(=O)O)c(=O)c2cc(F)c(N3CCN(S(=O)(=O)c4cccc5ccccc45)CC3)cc21 [Compound 7a],2.79,2.43,3.69,7.6,1.91,,3.38
"O=c1[nH]cc(F)c(=O)[nH]1 [Compound 5-FU, 5-fluorouracil, reference compound]",,,,,,> 100,
CCn1cc(C(=O)O)c(=O)c2cc(F)c(N3CCN(S(=O)(=O)c4ccc(Cl)cc4Cl)CC3)cc21 [Compound 2a],2.55,1.92,2.54,4.02,1.88,,3.43
